{"source": "paper PMC9697519", "about": "“New Theonellapeptolides from Indonesian Marine Sponge Theonella swinhoei as Anti-Austerity Agents” (Marine Drugs, 2022)", "key": {"[1]": {"tested_on": "MIA PaCa-2 cells", "test": "Time-lapse live imaging under NDM", "type": "cell-based, human", "conditions": "10 μM in NDM, 37 °C, 5% CO2, imaged 24 h", "procedure": "Thus, more detailed studies were performed on the major compound theonellapeptolide IId (4). Its effect on morphology status of MIA PaCa-2 cells under starvation condition was studied using a double-staining assay with EB (ethidium bromide) and AO (acridine orange). The membranes of dead or dying cells are penetrated by EB and staining in red while living cells are stained by AO, a cell-membrane-permeable dye emitting bright green fluorescence. Both AO and EB stains are known as DNA-intercalating agents. During cell death, EB and AO enter into the cell after the integrity of the cell membrane is disrupted, which facilitates the emission of orange fluorescence. In this study, MIA PaCa-2 cells treated with 5 and 10 μM of theonellapeptolide IId (4) were incubated in starvation condition (NDM) for 24 h, and stained with the EB and AO dyes. In Figure 6A, treatment with 4 led to a dose-dependent increase in EB-stained cells emitting red fluorescence and showing drastic alteration of cell morphology. […] To show the details of cell death in real time, live evidence of the anticancer potential of 4 was studied. A time-lapse live imaging anti-pancreatic cancer experiment under NDM condition was performed for the first time in a multi position in the dish, for monitoring the effect of 4. Moreover, MIA PaCa-2 cells were treated with 10 μM of compound 4 in NDM and incubated at 37 °C at 5% CO2. Real-time anti-austerity potential tracking of 4 showing morphological changes in MIA PaCa-2 cells under NDM was monitored using a Nikon sCMOS camera oxford instrument, Hamamatsu Photonics/Ti-E, for 24 h. Images were captured every 10 min by rotating at several fixed positions in the dish under the phase contrast mode on a CCD Camera imaging system for 24 h. Treatment with 4 under NDM inhibited cell mobility immediately within 60 min and altered morphology of MIA PaCa-2 cells after 4 h was observed, then cell death started after 8 h, finally in 12 h complete cell death was observed (Figure 7, Movies S1 and S2, Supporting Information). In the control, MIA PaCa-2 cells survived 24 h until the end of the experiment in the NDM (Figure 7). Thus, the result of this study provided the first simultaneous multi-site live evidence of the anti-pancreatic cancer therapeutic potential of the compound theonellapeptolide IId (4) against MIA PaCa-2 cells as marine-based anti-austerity agents. […]\nReal-time anti-austerity potential tracking anti-pancreatic cancer activity of 4 by showing morphological changes in MIA PaCa-2 cells under NDM was monitored using a Nikon sCMOS camera Oxford instrument, Hamamatsu Photonics/Ti-E, for 24 h. […]"}, "[2]": {"tested_on": "MIA PaCa-2 cells", "test": "Colony formation assay", "type": "cell-based, human", "conditions": "then fresh DMEM 10 days, 500 cells/well, three replicates", "procedure": "Figure 6 (A) Morphological changes of MIA PaCa-2 cells induced by 4 in a nutrient-deprived medium (NDM). MIA PaCa-2 tumor cells were treated with 4 at the indicated concentrations in NDM in a 24-well plate and incubated for 24 h. The cells were stained with ethidium bromide (EB) and acridine orange (AO), and photographed in the fluorescence (red and green) under phase contrast modes using a Nikon sCMOS camera oxford instrument, Hamamatsu Photonics/Ti-E. (B) Structure of bioactive compound 4. (C) Effect of 4 on colony formation by MIA PaCa-2 cells in DMEM. (a) Graph showing the average values of the area occupied by MIA PaCa-2 cell colonies (three replicates). **** p < 0.0001 compared to the untreated control group. (b) Representative wells showing colonies of MIA PaCa-2 cells.\nPancreatic cancer cells have a great ability to migrate to surrounding tissues, growing and forming new colonies after metastasis in distant organs with sufficient nutrition. These processes are responsible for the majority of deaths from pancreatic cancer. The phenomenon is called “colonization”, and occurs during cancer metastasis. Migrating pancreatic cancer cells are likely to form small colonies (micrometastases), which then become large tumors. The discovery of potential inhibitors of the colony-forming ability of pancreatic cancer represents a promising approach to prevent pancreatic tumor metastasis. […] Therefore, theonellapeptolides isolated from marine origin were studied for their ability to inhibit MIA PaCa-2 colony formation. MIA PaCa-2 cells (500 cells/well) were placed in a 24-well plate and treated with 4 at 12.5, 25, and 50 μM (non-cytotoxic concentrations) in DMEM for 24 h.\nSubsequently, the medium was replaced with fresh DMEM, and the cells were allowed to grow as colonies for 10 days in a humified CO2 incubator at 37 °C. […]\nColony Formation inhibitory effect of 4 at different concentrations against MIA PaCa-2 cells was determined as described previously."}}, "note": "Where a SMILES comes first, the peptide text is derived from it. Bridges are numbered along the chain shown (N, C = ends). [ ]: non-standard residue; d: D form. The star is where a group is joined. dNMeaIle = CC[C@H](C)[C@@H](NC)C(=O)O; d(aIle) = CC[C@H](C)[C@@H](N)C(=O)O; NMeI = CC[C@H](C)[C@H](NC)C(=O)O; dNMeL = CN[C@H](CC(C)C)C(=O)O; NMeV = CN[C@H](C(=O)O)C(C)C; Methoxyacetyl = COCC(=O)*; βAla = NCCC(=O)O", "data": [{"smiles": "CC[C@H](C)[C@H]1C(=O)NCCC(=O)N[C@H]([C@@H](C)CC)C(=O)N(C)[C@@H](C(C)C)C(=O)N[C@@H](C)C(=O)NCCC(=O)N[C@H](CC(C)C)C(=O)N(C)[C@H]([C@@H](C)CC)C(=O)O[C@H](C)[C@H](NC(=O)[C@@H](CC(C)C)N(C)C(=O)[C@@H](NC(=O)COC)C(C)C)C(=O)NCCC(=O)N[C@H](CC(C)C)C(=O)N1C", "note": "[Compound 4, theonellapeptolide IId] (Methoxyacetyl-V[dNMeL]T[βAla][dL][NMeI][βAla][d(aIle)][NMeV]A[βAla][dL][dNMeaIle]; ester 3-C)", "values": [{"measurement": "time after which altered cell morphology was observed", "setting": "[1]", "value": 4, "unit": "h"}, {"measurement": "time after which cell death started", "setting": "[1]", "value": 8, "unit": "h"}, {"measurement": "time to complete cell death", "setting": "[1]", "value": 12, "unit": "h"}, {"measurement": "time to inhibition of cell mobility", "setting": "[1]", "value": "≤ 60", "unit": "min"}, {"measurement": "total well area occupied by colonies", "setting": "[2]; 12.5 μM in DMEM for 24 h", "value": 100, "unit": "%"}, {"measurement": "colony formation", "setting": "[2]; 25 μM in DMEM for 24 h", "value": "total inhibition of colony formation"}, {"measurement": "colony formation", "setting": "[2]; 50 μM in DMEM for 24 h", "value": "total inhibition of colony formation"}]}]}
